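Compound exposure: 48 hours, 5 concentrations, 96-well plates. At the TGI there is no net growth.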 Peptide text beside a SMILES is read from it. * marks the point of attachment. Boc = CC(C)(C)OC(=O)*; OBn = c1ccc(CO*)cc1
Experiments:
Assay in all cases: NCI tumour cell line growth inhibition, 48 h
786-0 renal = tested on: 786-0 renal
A498 renal = tested on: A498 renal
A549 NSCLC = tested on: A549 NSCLC
ACHN renal = tested on: ACHN renal
BT-549 breast = tested on: BT-549 breast
CAKI-1 renal = tested on: CAKI-1 renal
CCRF-CEM leukemia = tested on: CCRF-CEM leukemia
COLO 205 colon = tested on: COLO 205 colon
DU-145 prostate = tested on: DU-145 prostate
EKVX NSCLC = tested on: EKVX NSCLC
HCC-2998 colon = tested on: HCC-2998 colon
HCT-116 colon = tested on: HCT-116 colon
HCT-15 colon = tested on: HCT-15 colon
HL-60(TB) leukemia = tested on: HL-60(TB) leukemia
HOP-62 NSCLC = tested on: HOP-62 NSCLC
HOP-92 NSCLC = tested on: HOP-92 NSCLC
HS 578T breast = tested on: HS 578T breast
HT29 colon = tested on: HT29 colon
IGROV1 ovarian = tested on: IGROV1 ovarian
K-562 leukemia = tested on: K-562 leukemia
KM12 colon = tested on: KM12 colon
LOX IMVI melanoma = tested on: LOX IMVI melanoma
MALME-3M melanoma = tested on: MALME-3M melanoma
MCF7 breast = tested on: MCF7 breast
MDA-MB-231 breast = tested on: MDA-MB-231 breast
MDA-MB-435 = tested on: MDA-MB-435
MDA-N = tested on: MDA-N
MOLT-4 leukemia = tested on: MOLT-4 leukemia
NCI-H226 lung = tested on: NCI-H226 lung
NCI-H23 lung = tested on: NCI-H23 lung
NCI-H460 lung = tested on: NCI-H460 lung
NCI-H522 lung = tested on: NCI-H522 lung
NCI/ADR-RES ovarian = tested on: NCI/ADR-RES ovarian
OVCAR-3 ovarian = tested on: OVCAR-3 ovarian
OVCAR-4 ovarian = tested on: OVCAR-4 ovarian
OVCAR-8 ovarian = tested on: OVCAR-8 ovarian
PC-3 prostate = tested on: PC-3 prostate
RPMI-8226 leukemia = tested on: RPMI-8226 leukemia
RXF 393 renal = tested on: RXF 393 renal
SF-268 CNS = tested on: SF-268 CNS
SF-295 CNS = tested on: SF-295 CNS
SF-539 CNS = tested on: SF-539 CNS
SK-MEL-28 melanoma = tested on: SK-MEL-28 melanoma
SK-MEL-5 melanoma = tested on: SK-MEL-5 melanoma
SK-OV-3 ovarian = tested on: SK-OV-3 ovarian
SN12C renal = tested on: SN12C renal
SNB-19 CNS = tested on: SNB-19 CNS
SNB-75 CNS = tested on: SNB-75 CNS
SR leukemia = tested on: SR leukemia
SW-620 colon = tested on: SW-620 colon
T-47D breast = tested on: T-47D breast
TK-10 renal = tested on: TK-10 renal
U251 CNS = tested on: U251 CNS
UACC-257 melanoma = tested on: UACC-257 melanoma
UACC-62 melanoma = tested on: UACC-62 melanoma
UO-31 renal = tested on: UO-31 renal
M14 melanoma = tested on: M14 melanoma
OVCAR-5 ovarian = tested on: OVCAR-5 ovarian
SK-MEL-2 melanoma = tested on: SK-MEL-2 melanoma

## O=c1c2cc([N+](=O)[O-])ccc2n2n1Cc1ccccc1C2
786-0 renal
  TGI: > 100 µM
A498 renal
  TGI: > 100 µM
A549 NSCLC
  TGI: > 100 µM
ACHN renal
  TGI: > 100 µM
BT-549 breast
  TGI: > 100 µM
CAKI-1 renal
  TGI: > 100 µM
CCRF-CEM leukemia
  TGI: > 100 µM
COLO 205 colon
  TGI: > 100 µM
DU-145 prostate
  TGI: > 100 µM
EKVX NSCLC
  TGI: > 100 µM
HCC-2998 colon
  TGI: > 100 µM
HCT-116 colon
  TGI: > 100 µM
HCT-15 colon
  TGI: > 100 µM
HL-60(TB) leukemia
  TGI: > 100 µM
HOP-62 NSCLC
  TGI: > 100 µM
HOP-92 NSCLC
  TGI: > 100 µM
HS 578T breast
  TGI: > 100 µM
HT29 colon
  TGI: > 100 µM
IGROV1 ovarian
  TGI: > 100 µM
K-562 leukemia
  TGI: > 100 µM
KM12 colon
  TGI: > 100 µM
LOX IMVI melanoma
  TGI: > 100 µM
MALME-3M melanoma
  TGI: > 100 µM
MCF7 breast
  TGI: > 100 µM
MDA-MB-231 breast
  TGI: > 100 µM
MDA-MB-435
  TGI: > 100 µM
MDA-N
  TGI: > 100 µM
MOLT-4 leukemia
  TGI: > 100 µM
NCI-H226 lung
  TGI: > 100 µM
NCI-H23 lung
  TGI: > 100 µM
NCI-H460 lung
  TGI: > 100 µM
NCI-H522 lung
  TGI: > 100 µM
NCI/ADR-RES ovarian
  TGI: > 100 µM
OVCAR-3 ovarian
  TGI: > 100 µM
OVCAR-4 ovarian
  TGI: > 100 µM
OVCAR-8 ovarian
  TGI: > 100 µM
PC-3 prostate
  TGI: > 100 µM
RPMI-8226 leukemia
  TGI: > 100 µM
RXF 393 renal
  TGI: > 100 µM
SF-268 CNS
  TGI: > 100 µM
SF-295 CNS
  TGI: > 100 µM
SF-539 CNS
  TGI: > 100 µM
SK-MEL-28 melanoma
  TGI: > 100 µM
SK-MEL-5 melanoma
  TGI: > 100 µM
SK-OV-3 ovarian
  TGI: > 100 µM
SN12C renal
  TGI: > 100 µM
SNB-19 CNS
  TGI: > 100 µM
SNB-75 CNS
  TGI: > 100 µM
SR leukemia
  TGI: > 100 µM
SW-620 colon
  TGI: > 100 µM
T-47D breast
  TGI: > 100 µM
TK-10 renal
  TGI: > 100 µM
U251 CNS
  TGI: > 100 µM
UACC-257 melanoma
  TGI: > 100 µM
UACC-62 melanoma
  TGI: > 100 µM
UO-31 renal
  TGI: > 100 µM

## CCOC(=O)/C(C#N)=C1\c2c([nH]c(=S)[nH]c2=O)Oc2ccc3ccccc3c21
786-0 renal
  TGI: > 100 µM
A498 renal
  TGI: > 100 µM
A549 NSCLC
  TGI: > 100 µM
ACHN renal
  TGI: > 100 µM
BT-549 breast
  TGI: > 100 µM
CAKI-1 renal
  TGI: > 100 µM
CCRF-CEM leukemia
  TGI: 4.26 µM
COLO 205 colon
  TGI: > 100 µM
DU-145 prostate
  TGI: > 100 µM
EKVX NSCLC
  TGI: > 100 µM
HCC-2998 colon
  TGI: > 100 µM
HCT-116 colon
  TGI: > 100 µM
HCT-15 colon
  TGI: > 100 µM
HL-60(TB) leukemia
  TGI: 4.56 µM
HOP-62 NSCLC
  TGI: > 100 µM
HOP-92 NSCLC
  TGI: > 100 µM
HS 578T breast
  TGI: > 100 µM
HT29 colon
  TGI: > 100 µM
IGROV1 ovarian
  TGI: > 100 µM
K-562 leukemia
  TGI: > 100 µM
KM12 colon
  TGI: > 100 µM
LOX IMVI melanoma
  TGI: > 100 µM
M14 melanoma
  TGI: > 100 µM
MALME-3M melanoma
  TGI: > 100 µM
MCF7 breast
  TGI: > 100 µM
MDA-MB-231 breast
  TGI: > 100 µM
MDA-MB-435
  TGI: > 100 µM
MDA-N
  TGI: > 100 µM
MOLT-4 leukemia
  TGI: 47.3 µM
NCI-H226 lung
  TGI: > 100 µM
NCI-H23 lung
  TGI: > 100 µM
NCI-H460 lung
  TGI: > 100 µM
NCI-H522 lung
  TGI: 54.5 µM
NCI/ADR-RES ovarian
  TGI: > 100 µM
OVCAR-3 ovarian
  TGI: 58.8 µM
OVCAR-4 ovarian
  TGI: > 100 µM
OVCAR-5 ovarian
  TGI: > 100 µM
OVCAR-8 ovarian
  TGI: > 100 µM
PC-3 prostate
  TGI: > 100 µM
RPMI-8226 leukemia
  TGI: > 100 µM
RXF 393 renal
  TGI: > 100 µM
SF-268 CNS
  TGI: > 100 µM
SF-295 CNS
  TGI: > 100 µM
SK-MEL-2 melanoma
  TGI: 41 µM
SK-MEL-28 melanoma
  TGI: 3.81 µM
SK-MEL-5 melanoma
  TGI: 41.4 µM
SK-OV-3 ovarian
  TGI: > 100 µM
SN12C renal
  TGI: > 100 µM
SNB-19 CNS
  TGI: 58.5 µM
SNB-75 CNS
  TGI: 52 µM
SR leukemia
  TGI: > 100 µM
SW-620 colon
  TGI: 12.2 µM
T-47D breast
  TGI: > 100 µM
TK-10 renal
  TGI: > 100 µM
U251 CNS
  TGI: > 100 µM
UACC-257 melanoma
  TGI: > 100 µM
UACC-62 melanoma
  TGI: > 100 µM
UO-31 renal
  TGI: > 100 µM

## CC(NC(=O)CNC(=O)OC(C)(C)C)C(=O)NC(Cc1ccccc1)C(=O)OCc1ccccc1 (stereo not drawn) (Boc-Gly-Ala-Phe-OBn; configuration not given here)
786-0 renal
  TGI: > 100 µM
A498 renal
  TGI: > 100 µM
A549 NSCLC
  TGI: > 100 µM
ACHN renal
  TGI: > 100 µM
BT-549 breast
  TGI: > 100 µM
CAKI-1 renal
  TGI: > 100 µM
CCRF-CEM leukemia
  TGI: > 100 µM
COLO 205 colon
  TGI: > 100 µM
DU-145 prostate
  TGI: > 100 µM
EKVX NSCLC
  TGI: > 100 µM
HCT-116 colon
  TGI: > 100 µM
HCT-15 colon
  TGI: > 100 µM
HL-60(TB) leukemia
  TGI: > 100 µM
HOP-92 NSCLC
  TGI: > 100 µM
HS 578T breast
  TGI: > 100 µM
HT29 colon
  TGI: > 100 µM
IGROV1 ovarian
  TGI: > 100 µM
K-562 leukemia
  TGI: > 100 µM
KM12 colon
  TGI: > 100 µM
LOX IMVI melanoma
  TGI: > 100 µM
M14 melanoma
  TGI: > 100 µM
MALME-3M melanoma
  TGI: > 100 µM
MCF7 breast
  TGI: > 100 µM
MDA-MB-231 breast
  TGI: > 100 µM
MDA-MB-435
  TGI: > 100 µM
MDA-N
  TGI: > 100 µM
MOLT-4 leukemia
  TGI: > 100 µM
NCI-H226 lung
  TGI: > 100 µM
NCI-H23 lung
  TGI: > 100 µM
NCI-H522 lung
  TGI: > 100 µM
NCI/ADR-RES ovarian
  TGI: > 100 µM
OVCAR-4 ovarian
  TGI: > 100 µM
OVCAR-5 ovarian
  TGI: > 100 µM
OVCAR-8 ovarian
  TGI: > 100 µM
PC-3 prostate
  TGI: > 100 µM
RXF 393 renal
  TGI: > 100 µM
SF-268 CNS
  TGI: > 100 µM
SF-295 CNS
  TGI: > 100 µM
SF-539 CNS
  TGI: > 100 µM
SK-MEL-2 melanoma
  TGI: > 100 µM
SK-MEL-28 melanoma
  TGI: > 100 µM
SK-MEL-5 melanoma
  TGI: > 100 µM
SK-OV-3 ovarian
  TGI: > 100 µM
SN12C renal
  TGI: > 100 µM
SNB-19 CNS
  TGI: > 100 µM
SNB-75 CNS
  TGI: > 100 µM
SR leukemia
  TGI: > 100 µM
SW-620 colon
  TGI: > 100 µM
T-47D breast
  TGI: > 100 µM
TK-10 renal
  TGI: > 100 µM
U251 CNS
  TGI: > 100 µM
UACC-257 melanoma
  TGI: > 100 µM
UACC-62 melanoma
  TGI: > 100 µM
UO-31 renal
  TGI: > 100 µM

Reference: PubChem BioAssay (NCI)
